Measurements taken from patent US20220177515A1, “METHOD FOR MODIFYING AMINO GROUP IN MOLECULE WITH THE ZOLINIUM AND USE THEREOF” (priority 2019, published 2022).
One block for each compound: values may come before it. Starred links: 1 amine or outer side, 2 acyl side, 3 side chain; linkers in the order of their positions; H or OH if unused. Non-standard residues stand in square brackets, D forms with d. Residues, ends and D or L forms follow the SMILES beside them. X1 = O=C([C@H](Cc1ccc(O)cc1)N(c1ccc2ccccc2n1)[*:1])[*:2]

Tests used:
μ-opioid receptor (MOR) = μ-opioid receptor (MOR) (Homo sapiens, UniProt P35372); assay: [35S]GTPγS binding assay, MOR agonist activity; format: biochemical; details: for Emax: [35S]GTPγS binding rate
Chain of μ-opioid receptor (MOR) (P35372 whole entry): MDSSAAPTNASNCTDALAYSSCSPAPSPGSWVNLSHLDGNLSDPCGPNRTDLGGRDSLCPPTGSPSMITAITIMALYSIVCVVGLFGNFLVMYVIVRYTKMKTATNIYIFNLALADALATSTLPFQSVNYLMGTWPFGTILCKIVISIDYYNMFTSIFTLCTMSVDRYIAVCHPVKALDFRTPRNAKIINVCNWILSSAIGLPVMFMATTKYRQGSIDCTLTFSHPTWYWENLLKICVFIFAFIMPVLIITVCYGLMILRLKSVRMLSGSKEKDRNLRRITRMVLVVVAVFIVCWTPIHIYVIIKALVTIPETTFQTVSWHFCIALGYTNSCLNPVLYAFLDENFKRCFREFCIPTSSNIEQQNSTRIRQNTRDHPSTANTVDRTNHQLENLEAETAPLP
Description: Protein concentration was detected using BCA protein concentration assay kit: 10 μl of protein standard was prepared into a final concentration of 0.5 mg/ml. 0, 1, 2, 4, 8, 12, 16, or 20 μl of BSA standard protein was taken and added together with the sample to be tested to a 96-well plate, and supplemented to 20 μl with the solution for diluting the standard. 200 μl of BCA working solution was added to each well and placed at 37° C. for 30 min. The absorbance at A562 wavelength was measured with a microplate reader. The protein concentration was calculated based on the standard curve.
The prepared membrane receptor was diluted to the required concentration with the reaction buffer (R.B), and the samples were added as shown in Table 2 (unit: μl).
The reaction tube was incubated in a 27° C. water bath for 1 hour, and the mixture was filtered through a glass fiber membrane under reduced pressure and liquid scintillation counting was performed. The following equation was used to perform calculation:
[^35S] GTPγS binding rate=100×(cpmsample−cpmnon-specific)/(cpmbasal−cpmnon-specific)

tankyrase (TNKS) = details: read-out: IC50 (TNKS inhibitor); cited from earlier work
[1] = test system: Hepatocarcinoma SMMC-7721 cells; assay: Cell proliferation inhibition assay (SRB method), SMMC-7721; format: cell-based; details: for IC50: SMMC-7721, 72 hours, SRB
Description: (§1) Hepatocarcinoma BEL-7402 and SMMC-7721 cells were purchased from American Standard Bacterial Bank. All cell lines were stored in a cell culture medium containing 10% fetal bovine serum in a humid environment at 37° C. and 5% CO2. The two kinds of hepatocarcinoma cells were seeded in 96-well plates overnight. The assay were performed using a final highest concentration of 100 μM, 10-fold dilution, 6 gradients and 3 duplicates, and the cells were treated for 72 hours and three independent repeated experiments were carried out. The antiproliferative activity of the compound was determined by Sulforhodamine B (SRB) method. Then the absorbance OD value at a wavelength of 510 nm was measured on a Synergy H4 Hybrid reader (BioTek, Winooski, Vt., USA) by using Gen5.0 software (BioTek). The IC50 value was calculated using the software Prism 5 (GraphPad Software, Inc).

[2] = test system: Hepatocarcinoma BEL-7402 cells; assay: Cell proliferation inhibition assay (SRB method), BEL-7402; format: cell-based; details: for IC50: BEL-7402, 72 hours, SRB
Description: as §1

[3] = format: in vitro ADME; details: 1 mg/ml in pig liver slurry, 0.25-3 hour, FIG. 3
Description: 5 g of a fresh pig liver from which adhering fat and connective tissue were removed, was washed with a cold saline, absorbed water on its surface with a filter paper and weighed. The liver was cut into pieces with a scissors, added with an appropriate amount of a PBS buffer, and homogenized with a homogenizer at a frequency of 30/s for 4 minutes to prepare 20 ml of a slurry. The compound 2-40 to be tested (at a final concentration of 1 mg/ml with a co-solvent (1% DMSO)) was added into the 20 ml pig liver slurry, stirred thoroughly and left stand. 1 ml of samples were withdrawn twice at six time points: 0.25 hour, 0.5 hour, 1 hour, 1.5 hour, 2 hour and 3 hour, respectively, and added with methanol (500 μl) to stop the reaction. After centrifugation (1000 rpm, 6 minutes), the supernatant was separated and extracted twice with 750 μl of water-saturated n-butanol. The extracted samples were then analyzed by HPLC. The HPLC analysis was performed on an Agilent Zorbax SB-C18 column (5 μm, 4.6×250 mm) with a flow rate of […] at 25° C. The gradient condition used was from 50% A (MeOH) and 50% B (H2O+0.2% CH3COOH) to 95% A and 5% B in 16 minutes. The absorbance values at 210, 254 and 280 nm were collected using a UV-DAD detector.

SMILES: C[C@@H](NC(=O)[C@@H](N)Cc1ccc(O)cc1)C(=O)N[C@@H](Cc1ccccc1)C(=O)NCC(=O)N[C@@H](Cc1ccc(O)cc1)C(=O)N1CCC[C@H]1C(=O)N[C@@H](CO)C(N)=O [derorphin, reference compound]
- Emax (μ-opioid receptor (MOR); mean ± sem): 219 ± 7.1%

SMILES: Cc1cc(=O)[nH]c2cc(-c3ccccc3F)ccc12 [7-(2-fluorophenyl)-4-methylquinoline-2(1H)-one]
- IC50 (tankyrase (TNKS)): 0.052 µM

SMILES: CC(C)C[C@H](NC(=O)[C@H](CO)NC(=O)[C@@H](N)Cc1ccc(O)cc1)C(=O)O [YSL, Tyroserleutide, reference compound] (H-Tyr-Ser-Leu-OH; N-terminus and C-terminus assumed)
- IC50 [1]: > 100 µM
- IC50 [2]: > 100 µM

SMILES: COC(=O)[C@H](CC(C)C)NC(=O)[C@H](CO)NC(=O)[C@@H](N)Cc1ccc(O)cc1 [YSL-M, tyroserleucide methyl ester, reference compound] (H-Tyr-Ser-Leu-OMe; N-terminus assumed)
- IC50 [1]: > 100 µM
- IC50 [2]: > 100 µM

SMILES: COC(=O)[C@H](CC(C)C)NC(=O)[C@H](CO)NC(=O)[C@H](Cc1ccc(O)cc1)Nc1ccc2ccccc2n1 [Compound 2-39]
- cytotoxicity compared with unmodified drugs ([1]; SMMC-7721): better cytotoxicities than the unmodified drugs
- IC50 [1]: 63.3 ± 6.35 µM
- cytotoxicity compared with unmodified drugs ([2]; BEL-7402): better cytotoxicities than the unmodified drugs
- IC50 [2]: 52.6 ± 2.47 µM

SMILES: C[C@H](NC(=O)[C@H](Cc1ccc(O)cc1)Nc1ccc2ccccc2n1)C(=O)N[C@H](Cc1ccccc1)C(=O)NCC(=O)N[C@H](Cc1ccc(O)cc1)C(=O)N1CCC[C@H]1C(=O)N[C@@H](CO)C(N)=O [Compound 2-38] (H-[X1]A[dF]G[dY]PS-NH2)
- MOR agonist activity compared with derorphin (μ-opioid receptor (MOR)): activity comparable to that of derorphin
- EC50 (μ-opioid receptor (MOR); mean ± sem): 0.224 ± 0.0251 µM
- Emax (μ-opioid receptor (MOR); mean ± sem): 203 ± 5.1%

- metabolic stability in liver tissue [3]: good metabolic stability
SMILES: C=C(/C=C\C(=C)NC(=O)[C@H](CCCNC(N)=O)NC(=O)[C@@H](Nc1cc(C)c2ccc(-c3ccccc3F)cc2n1)C(C)C)CO [Compound 2-40]
